Some test systems named below: Candida glabrata 090902; Acinetobacter baumannii; Klebsiella pneumoniae; Staphylococcus aureus; Pseudomonas aeruginosa; Enterococcus faecium; Salmonella typhimurium; Streptococcus pyogenes; Candida albicans; Proteus vulgaris; Aeromonas sobria; Escherichia coli 091335; Candida tropicalis; Proteus mirabilis; Klebsiella oxytoca; Nocardia asteroides.
Holding throughout (assay): ≥ marks a high value that may be exact or a test limit, other limits are often not marked, values filed in µg/mL are converted to µM
Assay [1] relates to Enterococcus faecalis 981.
Assay [2] concerns Escherichia coli ATCC 25922.
Assay [3] relates to Pseudomonas aeruginosa CGMCC 1.50.
Assay [4] has as its system Klebsiella pneumoniae 08040724.
Assay [5] concerns Staphylococcus aureus ATCC 25923.
Assay [6] relates to Nocardia asteroides 201118.
Assay [7] deals with Staphylococcus aureus ATCC 29213.
Assay [8] concerns Pseudomonas aeruginosa PA14.
In assay [9] the test system is Escherichia coli O18:K1:H7.
Assay [10] concerns Burkholderia cepacia ATCC 25416.
The subject of assay [11] is Listeria monocytogenes 10403s.
Assay [12] has as its system Stenotrophomonas maltophilia.
Assay [13] deals with Pseudomonas aeruginosa ATCC 27853.
For assay [14], the system named is Serratia marcescens ATCC 8100.
In assay [15] the test system is Pseudomonas aeruginosa 547.
Assay [16] concerns Streptococcus pneumoniae ATCC 49619.
For assay [17], the system named is Acinetobacter baumannii ATCC 19606.
Assay [18] relates to Klebsiella pneumoniae ATCC 27736.
For assay [19], the system named is Bacillus cereus ATCC 10876.
In assay [20] the test system is Staphylococcus aureus ATCC 6538.
Assay [21] relates to Enterococcus faecalis ATCC 29212.
Assay [22] relates to Pseudomonas aeruginosa 091412.
Assay [23] concerns Streptococcus equi subsp. zooepidemicus ATCC 43079.
The test system of assay [24] is Enterococcus faecium 091299.
The subject of assay [25] is Staphylococcus aureus ATCC 2592.
Assay [26] relates to Cutibacterium acnes ATCC 11827.
The subject of assay [27] is Staphylococcus haemolyticus.
For assay [28], the system named is Pseudomonas aeruginosa 091411.
Assay [29] relates to Streptococcus dysgalactiae subsp. dysgalactiae ATCC 27957.
The subject of assay [30] is Streptococcus agalactiae ATCC 27956.

In brackets after ≈: the same amount, converted by molar mass. Several values for one entry are separate records, joined by “and”; a condition that tells them apart may be missing. Identical values can stand only once. Where only a bound is given, the exact number is not on record here.

`CC[C@H](C)[C@H](NC(=O)[C@H](C)NC(=O)[C@@H]1CCCN1C(=O)[C@H](CC(C)C)NC(=O)[C@@H](N)Cc1ccccc1)C(=O)N[C@H](C(=O)NCC(=O)N[C@@H](CCSC)C(=O)N[C@@H](C)C(=O)N[C@@H](C)C(=O)N[C@@H](CCCCN)C(=O)N[C@H](C(=O)N[C@@H](CC(C)C)C(=O)N1CCC[C@H]1C(=O)N[C@@H](C)C(=O)N[C@@H](Cc1ccccc1)C(=O)N[C@@H](CC(C)C)C(=O)N[C@H]1CSSC[C@@H](C(=O)O)NC(=O)[C@H](CCCCN)NC(=O)[C@H](CCCCN)NC(=O)[C@H]([C@@H](C)O)NC(=O)[C@H]([C@@H](C)CC)NC(=O)[C@H](CCCCN)NC1=O)C(C)C)[C@@H](C)CC` [FLPAIIGMAAKVLPAFLCKITKKC]: the MIC is 9.4 µM (≈ 24.2 µg/mL) in assay [1]; 37.5 µM (≈ 96.6 µg/mL) in assay [2]; not below 75 µM in assay [3]; not below 75 µM in assay [4]; 4.7 µM (≈ 12.1 µg/mL) in assay [5]; 1.2 µM (≈ 3.09 µg/mL) in assay [6]. The molecule also gave an MIC in the assay with Candida glabrata 090902 not below 37.5 µM.
Take `CSCC[C@@H](NC(=O)[C@@H](Cc1c[nH]c2ccccc12)NC(=O)CNC(=O)CNC(=O)[C@@H](CCCN=C(N)N)NC(=O)[C@@H](CCCN=C(N)N)NC(=O)[C@@H](CCCN=C(N)N)NC(=O)[C@@H](CCC(N)=O)NC(=O)[C@@H](CCCN=C(N)N)NC(=O)[C@@H](CCCN=C(N)N)NC(=O)[C@@H](CCCCN)NC(=O)[C@@H](CCCCN)NC(=O)[C@@H](CCCN=C(N)N)NC(=O)CN)C(=O)N[C@H](Cc1c[nH]c2ccccc12)C(=O)N[C@@H](C(=O)N[C@@H](C(=O)N[C@H](CC(N)=O)C(=O)N[C@H](CC(C)C)C(=O)N[C@H](CCCN=C(N)N)C(=O)N[C@@H](C(=O)N[C@H](CC(=O)O)C(=O)O)[C@H](C)O)[C@H](C)O)C(C)C` [GRKKRRQRRRGGWMWVTNLRTD]: the minimal inhibitory concentration (MIC) in assay [7] was 45.5 µM (≈ 128 µg/mL); in [8], 11.4 µM (≈ 32 µg/mL); against Acinetobacter baumannii it was 5.69 µM (≈ 16 µg/mL); with Klebsiella pneumoniae, more than 91 µM; in assay [9] it was 22.7 µM (≈ 64 µg/mL); in assay [10], not below 91 µM. For the same molecule, the MIC in assay [2] was 11.4 µM (≈ 32 µg/mL); in [11], not below 45.5 µM; against Staphylococcus aureus, 45.5 µM (≈ 128 µg/mL); in [12], 5.69 µM (≈ 16 µg/mL); in assay [13], 22.7 µM (≈ 64 µg/mL); in the assay on Pseudomonas aeruginosa it was more than 45.5 µM. Also, the MIC with Enterococcus faecium is 22.7 µM (≈ 64 µg/mL); in assay [14], not below 91 µM; in [15], not below 45.5 µM; in the assay on Salmonella typhimurium, 22.7 µM (≈ 64 µg/mL); in assay [16], 22.7 µM (≈ 64 µg/mL); in [17], 2.84 µM (≈ 8 µg/mL). The values for the MIC (in assay [18]; against Streptococcus pyogenes) were not below 91 µM and 2.84 µM (≈ 8 µg/mL), respectively.
`CC[C@H](C)[C@H](NC(=O)[C@H](CCSC)NC(=O)[C@H](CC(C)C)NC(=O)[C@H](Cc1ccccc1)NC(=O)[C@H](CCC(N)=O)NC(=O)[C@H](Cc1ccc(O)cc1)NC(=O)[C@H](CCCN=C(N)N)NC(=O)[C@@H](NC(=O)[C@@H](NC(=O)[C@@H](NC(=O)[C@H](CO)NC(=O)CNC(=O)[C@H](CCCN=C(N)N)NC(=O)[C@H](CCCN=C(N)N)NC(=O)[C@@H](N)CCCCN)C(C)C)[C@@H](C)O)[C@@H](C)O)C(=O)N[C@@H](Cc1cnc[nH]1)C(=O)N[C@@H](CC(C)C)C(=O)N[C@@H](CC(C)C)C(=O)N[C@@H](CCCN=C(N)N)C(=O)N1CCC[C@H]1C(=O)N[C@@H](CCCCN)C(=O)N[C@@H](CCCCN)C(=O)N[C@@H](CC(C)C)C(=O)N[C@@H](Cc1ccccc1)C(=O)N[C@@H](C)C(=O)O` [KRRGSVTTRYQFLMIHLLRPKKLFA]: the MIC is 13.1 µM (≈ 40.1 µg/mL) in [19]; 13.4 µM (≈ 41 µg/mL) in [20]; 3.07 µM (≈ 9.4 µg/mL) against Candida albicans; more than 32.7 µM against Klebsiella pneumoniae; 2.9 µM (≈ 8.88 µg/mL) in assay [2]; 9.8 µM (≈ 30 µg/mL) in assay [21]. Also, the MIC in assay [22] is not below 32.7 µM; with Proteus vulgaris, not below 32.7 µM; in assay [23] it was 13.1 µM (≈ 40.1 µg/mL); in [24], 3.07 µM (≈ 9.4 µg/mL); in the assay on Staphylococcus aureus, 0.392 µM and > 0.196 µM; in the assay with Aeromonas sobria it was 3.07 µM (≈ 9.4 µg/mL). Also, the minimum inhibitory concentration (MIC) in assay [12] was 3.07 µM (≈ 9.4 µg/mL); against Escherichia coli 091335, 24.5 µM (≈ 75 µg/mL); in assay [25] it was 0.196 µM (≈ 0.6 µg/mL); in the assay on Candida tropicalis, not below 32.7 µM; in the assay with Proteus mirabilis it was not below 32.7 µM; against Klebsiella oxytoca it was not below 32.7 µM. In addition, the MIC in assay [26] is 1.54 µM (≈ 4.7 µg/mL); in [27], 0.196 µM (≈ 0.6 µg/mL); in [28], 6.14 µM (≈ 18.8 µg/mL); in the assay with Nocardia asteroides it was 0.392 µM (≈ 1.2 µg/mL); in assay [29], 13.1 µM (≈ 40.1 µg/mL); in assay [30] it was 13.1 µM (≈ 40.1 µg/mL). The molecule also gave an MIC with Candida glabrata 090902 not below 32.7 µM.
